Results: ChEMBL document CHEMBL2057106, “Α-amino-β-fluorocyclopropanecarboxylic acids as a new tool for drug development: synthesis of glutamic acid analogs and agonist activity towards metabotropic glutamate receptor 4” (Bioorg Med Chem, 2012)
Active and inactive are the calls of the source. The rule behind the calls is not given here.

Tests used:
[1] = Agonist activity at mGlu4a receptor assessed as inhibition of forskolin-stimulated cAMP production; format: functional, Homo sapiens
[2] = target: Metabotropic glutamate receptor 4 (Rattus norvegicus, UniProt P31423); assay: Agonist activity at rat mGlu4 receptor expressed in HEK293 cells coexpressing Gq/Gi and EAAC1 assessed as intracellular calcium production measured every 1.5 secs for 60 secs by Fluo-4-AM based fluorometry; format: functional, cell-based
[3] = target: Metabotropic glutamate receptor 4 (Rattus norvegicus) (UniProt P31423); assay: Ratio of glutamate EC50 to compound EC50 for rat mGlu4 receptor expressed in HEK293 cells; format: cell-based
[4] = target: Metabotropic glutamate receptor 4 (Rattus norvegicus) (UniProt P31423); assay: Agonist activity at rat mGlu4 receptor expressed in HEK293 cells coexpressing Gq/Gi and EAAC1 assessed as intracellular calcium production at 100 uM measured every 1.5 secs for 60 secs by Fluo-4-AM based fluorometry; format: functional, cell-based
[5] = target: Metabotropic glutamate receptor 4 (Rattus norvegicus) (UniProt P31423); assay: Ratio of (E)APCPr EC50 to compound EC50 for rat mGlu4 receptor expressed in HEK293 cells; format: cell-based

Sequence of Metabotropic glutamate receptor 4 (Rattus norvegicus) (P31423 whole entry): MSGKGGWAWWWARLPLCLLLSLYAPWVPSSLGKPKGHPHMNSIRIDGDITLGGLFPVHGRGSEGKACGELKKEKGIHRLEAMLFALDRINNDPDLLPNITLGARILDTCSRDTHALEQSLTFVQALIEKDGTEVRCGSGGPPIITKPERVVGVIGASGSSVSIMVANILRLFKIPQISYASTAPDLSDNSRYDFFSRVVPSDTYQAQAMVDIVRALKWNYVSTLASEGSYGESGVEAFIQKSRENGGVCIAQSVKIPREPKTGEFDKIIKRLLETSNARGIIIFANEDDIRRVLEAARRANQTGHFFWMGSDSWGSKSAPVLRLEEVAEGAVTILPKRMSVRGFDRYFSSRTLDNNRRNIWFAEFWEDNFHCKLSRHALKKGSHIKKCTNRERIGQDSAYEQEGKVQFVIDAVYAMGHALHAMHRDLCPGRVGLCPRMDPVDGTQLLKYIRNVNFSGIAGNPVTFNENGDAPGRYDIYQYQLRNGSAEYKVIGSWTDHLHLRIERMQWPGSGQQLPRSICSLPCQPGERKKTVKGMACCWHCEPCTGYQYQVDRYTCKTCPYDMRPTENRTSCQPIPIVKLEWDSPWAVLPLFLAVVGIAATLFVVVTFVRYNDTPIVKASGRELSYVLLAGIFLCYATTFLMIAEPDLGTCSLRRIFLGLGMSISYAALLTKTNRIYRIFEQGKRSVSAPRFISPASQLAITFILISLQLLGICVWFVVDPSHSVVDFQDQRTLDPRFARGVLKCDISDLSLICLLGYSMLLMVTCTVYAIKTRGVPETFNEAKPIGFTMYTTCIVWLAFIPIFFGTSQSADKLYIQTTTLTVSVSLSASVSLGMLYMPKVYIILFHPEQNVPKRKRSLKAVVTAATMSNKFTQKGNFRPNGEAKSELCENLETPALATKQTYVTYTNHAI
Sequence of Metabotropic glutamate receptor 4 (P31423 whole entry): as above

| EC50 [2] [µM] | Structure (SMILES) | also measured |
| --- | --- | --- |
|  | N[C@@H](CCP(=O)(O)O)C(=O)O | EC50 [1]: 0.43 µM |
| 609 | N[C@]1(C(=O)O)C[C@@]1(F)CCC(=O)O (racemic) |  |
| 465 | N[C@]1(C(=O)O)C[C@@]1(F)CC(=O)O (racemic) |  |
| 85.6 | N[C@]1(C(=O)O)C[C@@]1(F)CS(=O)(=O)O (racemic) |  |
|  | N[C@]1(C(=O)O)C[C@H]1CP(=O)(O)O (racemic) | EC50 [1]: 7.9 µM |
| 2.88 | N[C@@H](CCC(=O)O)C(=O)O [GLUTAMIC ACID] |  |

| Structure (SMILES) | EC50 [2] [µM] | also measured |
| --- | --- | --- |
| N[C@@]1(C(=O)O)C[C@@]1(F)C(O)P(=O)(O)O (mixture of isomers) | 1400 |  |
| N[C@]1(C(=O)O)C[C@@]1(F)CP(=O)(O)O (racemic) | 0.34 | Ratio EC50 [3]: 10; Activity [4]: Active; Ratio EC50 [5]: 7 |
